Source: patent US11028088B2, “Modulators of BTK proteolysis and methods of use” (Yale University, priority 2018, dated 2021)
Where two headings read alike, the source gives them in different places.

Experiments:
[1] = biological target: BTK (Homo sapiens, UniProt Q06187); test: BTK degradation in NAMALWA cells (immunoblot); format: cell-based; design: host or cells: NAMALWA; details: for DC50: concentration needed to degrade 50% of the total pool of BTK; for Max: maximal BTK degradation
Experimental: NAMALWA and Jurkat cell lines were purchased from ATCC and cultured according to supplier guidelines at 37° C. […] Wild-type and C481S BTK XLA cell lines were cultured as previously described (39). Written, informed consent was obtained prior to the collection of cells from CLL patients using the IWCLL2008 criteria. Isolation of mononuclear cells from peripheral blood was prepared using density gradient centrifugation. B-cells were then negatively selected ([…] Technologies). […] They were maintained at 37° C. in 5% CO2.
Lysates were spun at 15,000×g for 10 min at 4° C. and supernatant was quantified for total protein content using the Pierce BCA Protein Assay (Thermo Fisher Scientific).
Either anti-rabbit or anti-mouse HRP-conjugated secondary antibodies (Pierce) were incubated with the membranes for 1 h at room temperature at 1:10,000 dilutions in 5% non-fat milk in IX TBS-T. Imaging was performed using the ECL Prime chemiluminescent western blot detection reagents (Amersham) followed by visualization with the Bio-Rad ChemiDoc imaging instrument. All western blots were subsequently processed and quantified using the accompanying Bio-Rad Image Lab software. […] All antibodies were used at 1:1,000 dilutions in 5% non-fat milk in 1×TBS-Tween (TBS-T) or Blotto blocker (Thermo Scientific) unless otherwise noted in supplier specifications.

[2] = biological target: T1, HER3 (Homo sapiens, UniProt P21860); test: HER3/ERBB3 degradation (western blot, OVCAR8 cells); format: cell-based
T1 construct: endogenous in cells; host or cells: OVCAR8
T1 sequence (P21860 20-1342): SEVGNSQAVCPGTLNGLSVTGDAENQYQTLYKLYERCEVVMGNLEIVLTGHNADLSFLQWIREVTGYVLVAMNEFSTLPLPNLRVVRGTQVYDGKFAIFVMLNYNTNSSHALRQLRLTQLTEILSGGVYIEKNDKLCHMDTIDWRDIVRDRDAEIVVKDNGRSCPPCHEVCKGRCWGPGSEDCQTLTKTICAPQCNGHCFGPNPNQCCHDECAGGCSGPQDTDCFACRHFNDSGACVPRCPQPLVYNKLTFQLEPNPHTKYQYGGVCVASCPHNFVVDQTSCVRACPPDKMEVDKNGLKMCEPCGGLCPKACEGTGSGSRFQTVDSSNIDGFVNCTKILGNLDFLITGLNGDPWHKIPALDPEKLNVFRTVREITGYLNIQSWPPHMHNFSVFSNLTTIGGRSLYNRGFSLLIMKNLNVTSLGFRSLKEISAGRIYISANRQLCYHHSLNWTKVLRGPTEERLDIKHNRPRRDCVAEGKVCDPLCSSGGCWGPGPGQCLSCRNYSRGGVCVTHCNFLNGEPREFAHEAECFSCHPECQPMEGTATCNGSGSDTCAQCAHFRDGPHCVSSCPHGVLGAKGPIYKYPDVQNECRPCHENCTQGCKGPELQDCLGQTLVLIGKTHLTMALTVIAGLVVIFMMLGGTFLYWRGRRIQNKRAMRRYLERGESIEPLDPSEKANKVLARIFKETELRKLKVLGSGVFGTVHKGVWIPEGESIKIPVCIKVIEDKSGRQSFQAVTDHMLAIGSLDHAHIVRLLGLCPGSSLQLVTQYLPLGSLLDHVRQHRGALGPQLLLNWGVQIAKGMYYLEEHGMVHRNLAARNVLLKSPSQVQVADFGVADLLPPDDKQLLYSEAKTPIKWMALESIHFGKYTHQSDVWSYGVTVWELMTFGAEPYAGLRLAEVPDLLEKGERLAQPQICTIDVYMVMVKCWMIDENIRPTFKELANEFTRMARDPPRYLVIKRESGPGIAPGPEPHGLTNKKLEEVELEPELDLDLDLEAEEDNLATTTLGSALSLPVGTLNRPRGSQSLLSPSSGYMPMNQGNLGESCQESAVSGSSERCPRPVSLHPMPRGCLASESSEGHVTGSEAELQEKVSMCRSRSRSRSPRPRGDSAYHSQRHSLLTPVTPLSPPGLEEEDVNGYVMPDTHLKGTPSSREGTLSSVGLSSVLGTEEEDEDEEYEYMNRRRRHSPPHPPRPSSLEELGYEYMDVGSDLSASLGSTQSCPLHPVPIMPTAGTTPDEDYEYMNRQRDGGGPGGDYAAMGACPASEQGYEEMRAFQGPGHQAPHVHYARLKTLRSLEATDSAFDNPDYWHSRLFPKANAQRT
Experimental: FIG. 10 illustrates a Western blot of Compound 102-related degradation of ERBB3.
In various embodiments, treatment with PROTAC was performed in one of two ways: 1) For experiments involving >16 h exposure to compound, a 1000× stock was added to cells followed by gentle agitation; 2) For shorter treatments, a 2× stock was added to an equal volume of cells to ensure uniform drug exposure. For immortalized cell lines, 2×10^6 cells per treatment condition were collected and washed once with ice cold PBS (IX), followed by lysis in buffer containing 20 mM Tris [pH 8.0], 0.25% sodium deoxycholate, 1% Triton X-100, supplemented with protease (Roche) and phosphatase inhibitors (10 mM NaF, 2 mM Na3VO4, 10 mM β-glycerophosphate, 10 mM Na-pyrophosphate). Lysates were spun at 15,000×g for 10 min at 4° C. and supernatant was quantified for total protein content using the Pierce BCA Protein Assay (Thermo Fisher Scientific). 30 μg of protein was loaded onto 12% SDS-PAGE gels or 4-15% Mini-PROTEAN TGX precast gradient gels (Bio-Rad), transferred onto nitrocellulose membranes, and probed with the specified primary antibodies overnight with rocking at 4° C. in 1×TBS-T containing 5% non-fat milk.
Either anti-rabbit or anti-mouse HRP-conjugated secondary antibodies (Pierce) were incubated with the membranes for 1 h at room temperature at 1:10,000 dilutions in 5% non-fat milk in IX TBS-T. Imaging was performed using the ECL Prime chemiluminescent western blot detection reagents (Amersham) followed by visualization with the Bio-Rad ChemiDoc imaging instrument. All western blots were subsequently processed and quantified using the accompanying Bio-Rad Image Lab software. Primary antibodies used were: Anti-actin antibody (Cat. #MA 1-744) purchased from ThermoFisher Scientific; anti-BTK (Cat. #8547), anti-pBTK (Y223, Cat. #5082), anti-ITK (Cat. #2380), anti-GAPDH (Cat. #5179), anti-IKZF1 (Cat. #9034), and anti-IKZF3 (Cat. #15103) antibodies purchased from Cell Signaling Technology. All antibodies were used at 1:1,000 dilutions in 5% non-fat milk in 1×TBS-Tween (TBS-T) or Blotto blocker (Thermo Scientific) unless otherwise noted in supplier specifications.

BTK, sequence (Q06187 whole entry): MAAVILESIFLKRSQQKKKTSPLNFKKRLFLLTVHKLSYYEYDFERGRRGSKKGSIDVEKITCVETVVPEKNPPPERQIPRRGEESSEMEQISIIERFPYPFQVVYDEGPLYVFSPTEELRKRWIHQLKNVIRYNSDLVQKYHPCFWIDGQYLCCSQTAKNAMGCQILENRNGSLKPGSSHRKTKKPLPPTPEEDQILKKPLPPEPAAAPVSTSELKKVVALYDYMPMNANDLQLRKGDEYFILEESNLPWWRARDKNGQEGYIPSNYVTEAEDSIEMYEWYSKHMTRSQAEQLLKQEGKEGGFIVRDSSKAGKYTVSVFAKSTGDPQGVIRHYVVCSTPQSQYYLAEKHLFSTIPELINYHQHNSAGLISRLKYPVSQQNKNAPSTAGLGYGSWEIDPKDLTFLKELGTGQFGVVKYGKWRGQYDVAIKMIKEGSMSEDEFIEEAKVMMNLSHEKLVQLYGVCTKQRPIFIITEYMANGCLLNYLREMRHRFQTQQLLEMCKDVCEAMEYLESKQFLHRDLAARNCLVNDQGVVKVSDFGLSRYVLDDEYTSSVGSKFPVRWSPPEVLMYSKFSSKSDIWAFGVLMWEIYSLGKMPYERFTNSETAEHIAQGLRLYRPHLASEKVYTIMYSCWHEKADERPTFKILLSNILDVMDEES

SMILES	DC50 ([1]; NAMALWA cells, read-out: DC50) [nM]	HER3 Degradation [2]	also measured
Cc1ncsc1-c1ccc(CNC(=O)[C@@H]2C[C@@H](O)CN2C(=O)[C@H](C(C)C)N2Cc3ccccc3C2=O)c(OCCCCOCCCCN2CCC(n3nc(-c4ccc(Oc5ccccc5)cc4)c4c(N)ncnc43)CC2)c1 [Compound 127, (2S,4R)—N-(2-(4-(4-(4-(4-amino-3-(4-phenoxyphenyl)-1H-pyrazolo[3,4-d]pyrimidin-1-yl)piperidin-1-yl)butoxy)butoxy)-4-(4-methylthiazol-5-yl)benzyl)-4-hydroxy-1-((S)-3-methyl-2-(1-oxoisoindolin-2-yl)butanoyl)pyrrolidine-2-carboxamide]	162	–	Max ([1]; concentration not given): 50%
Cc1ncsc1-c1ccc(CNC(=O)[C@@H]2C[C@@H](O)CN2C(=O)[C@@H](NC(=O)COCCOCCOCCOCCCCCCN2CCC(n3nc(-c4ccc(Oc5ccccc5)cc4)c4c(N)ncnc43)CC2)C(C)(C)C)cc1 [Compound 115, (2S,4R)-1-((S)-22-(4-(4-amino-3-(4-phenoxyphenyl)-1H-pyrazolo[3,4-d]pyrimidin-1-yl)piperidin-1-yl)-2,2-dimethyl-5-oxo-7,10,13,16-tetraoxa-4-azadocosanecarbonyl)-4-hydroxy-N-(4-(4-methylthiazol-5-yl)benzyl)pyrrolidine-2-carboxamide]	231	No	Max ([1]; at 1.0 μM, NAMALWA cells): 32%
Cc1ncsc1-c1ccc(CNC(=O)[C@@H]2C[C@@H](O)CN2C(=O)[C@@H](NC(=O)CCCCCOCCOCCOCCOCCCCCCN2CCC(n3nc(-c4ccc(Oc5ccccc5)cc4)c4c(N)ncnc43)CC2)C(C)(C)C)cc1 [Compound 119, (2S,4R)-1-((S)-26-(4-(4-amino-3-(4-phenoxyphenyl)-1H-pyrazolo[3,4-d]pyrimidin-1-yl)piperidin-1-yl)-2,2-dimethyl-5-oxo-11,14,17,20-tetraoxa-4-azahexacosanecarbonyl)-4-hydroxy-N-(4-(4-methylthiazol-5-yl)benzyl)pyrrolidine-2-carboxamide]	–	No	DC50 ([1]; NAMALWA cells): No Degradation
Cc1ncsc1-c1ccc(CNC(=O)[C@@H]2C[C@@H](O)CN2C(=O)[C@@H](NC(=O)CCCCCOCCOCCOCCCCCCN2CCC(n3nc(-c4ccc(Oc5ccccc5)cc4)c4c(N)ncnc43)CC2)C(C)(C)C)cc1 [Compound 116, (2S,4R)-1-((S)-23-(4-(4-amino-3-(4-phenoxyphenyl)-1H-pyrazolo[3,4-d]pyrimidin-1-yl)piperidin-1-yl)-2,2-dimethyl-5-oxo-11,14,17-trioxa-4-azatricosanecarbonyl)-4-hydroxy-N-(4-(4-methylthiazol-5-yl)benzyl)pyrrolidine-2-carboxamide]	–	No	DC50 ([1]; NAMALWA cells): No Degradation
Nc1ncnc2c1c(-c1ccc(Oc3ccccc3)cc1)nn2C1CCN(CCCCOCCCCOCC(=O)Nc2cccc3c2C(=O)N(C2CCC(=O)NC2=O)C3=O)CC1 (stereo not shown) [Compound 106, 2-[4-[4-[4-[4-amino-3-(4-phenoxyphenyl)pyrazolo[3,4-d]pyrimidin-1-yl]-1-piperidyl]butoxy]butoxy]-N-[2-(2,6-dioxo-3-piperidyl)-1,3-dioxo-isoindolin-4-yl]acetamide]	90.1	No	degradation of BTK at 1.0 μM ([1]; 1.0 μM, NAMALWA cells): nearly complete degradation; Max ([1]; at 1.0 μM, NAMALWA cells): 93%
CN1C(=O)CCC(N2C(=O)c3ccc(NC(=O)COCCOCCN4CCC(n5nc(-c6ccc(Oc7ccccc7)cc6)c6c(N)ncnc65)CC4)cc3C2=O)C1=O (stereo not shown) [Compound 130, 2-(2-(2-(4-(4-amino-3-(4-phenoxyphenyl)-1H-pyrazolo[3,4-d]pyrimidin-1-yl)piperidin-1-yl)ethoxy)ethoxy)-N-(2-(1-methyl-2,6-dioxopiperidin-3-yl)-1,3-dioxoisoindolin-5-yl)acetamide]	–	–	ability to degrade BTK ([1]; NAMALWA cells, dose escalation, 24 h): neither ibrutinib nor Compound 130 were able to induce degradation of BTK
Nc1ncnc2c1c(-c1ccc(Oc3ccccc3)cc1)nn2C1CCN(CCOCCOCCOc2ccc3c(c2)C(=O)N(C2CCC(=O)NC2=O)C3=O)CC1 (stereo not shown) [Compound 131, 5-(2-(2-(2-(4-(4-amino-3-(4-phenoxyphenyl)-1H-pyrazolo[3,4-d]pyrimidin-1-yl)piperidin-1-yl)ethoxy)ethoxy)ethoxy)-2-(2,6-dioxopiperidin-3-yl)isoindoline-1,3-dione]	13	–	Max ([1]; concentration not given): >99%
C=CC(=O)Nc1cc(-c2nn(C3CCN(CCCCCCOCCCCCOCC(=O)N[C@H](C(=O)N4C[C@H](O)C[C@H]4C(=O)NCc4ccc(-c5scnc5C)cc4)C(C)(C)C)CC3)c3ncnc(N)c23)ccc1Oc1ccccc1 [Compound 124, (2S,4R)-1-((S)-2-(2-(5-(6-(4-(3-(3-acrylamido-4-phenoxyphenyl)-4-amino-1H-pyrazolo[3,4-d]pyrimidin-1-yl)piperidin-1-yl)hexyloxy)pentyloxy)acetamido)-3,3-dimethylbutanoyl)-4-hydroxy-N-(4-(4-methylthiazol-5-yl)benzyl)pyrrolidine-2-carboxamide]	–	No	–
C=CC(=O)Nc1cc(-c2nn(C3CCN(CCCCCCOCCOCCOCCOCCOCC(=O)N[C@H](C(=O)N4C[C@H](O)C[C@H]4C(=O)NCc4ccc(-c5scnc5C)cc4)C(C)(C)C)CC3)c3ncnc(N)c23)ccc1Oc1ccccc1 [Compound 126, (2S,4R)-1-((S)-25-(4-(3-(3-acrylamido-4-phenoxyphenyl)-4-amino-1H-pyrazolo[3,4-d]pyrimidin-1-yl)piperidin-1-yl)-2,2-dimethyl-5-oxo-7,10,13,16,19-pentaoxa-4-azapentacosanecarbonyl)-4-hydroxy-N-(4-(4-methylthiazol-5-yl)benzyl)pyrrolidine-2-carboxamide]	–	No	–
C=CC(=O)Nc1cc(-c2nn(C3CCN(CCCCCCOCCOCCOCCOCC(=O)N[C@H](C(=O)N4C[C@H](O)C[C@H]4C(=O)NCc4ccc(-c5scnc5C)cc4)C(C)(C)C)CC3)c3ncnc(N)c23)ccc1Oc1ccccc1 [Compound 125, (2S,4R)-1-((S)-22-(4-(3-(3-acrylamido-4-phenoxyphenyl)-4-amino-1H-pyrazolo[3,4-d]pyrimidin-1-yl)piperidin-1-yl)-2,2-dimethyl-5-oxo-7,10,13,16-tetraoxa-4-azadocosanecarbonyl)-4-hydroxy-N-(4-(4-methylthiazol-5-yl)benzyl)pyrrolidine-2-carboxamide]	–	No	–
C=CC(=O)Nc1cc(-c2nn(C3CCN(CCCCCCOCCOCCOCC(=O)N[C@H](C(=O)N4C[C@H](O)C[C@H]4C(=O)NCc4ccc(-c5scnc5C)cc4)C(C)(C)C)CC3)c3ncnc(N)c23)ccc1Oc1ccccc1 [Compound 123, (2S,4R)-1-((S)-19-(4-(3-(3-acrylamido-4-phenoxyphenyl)-4-amino-1H-pyrazolo[3,4-d]pyrimidin-1-yl)piperidin-1-yl)-2,2-dimethyl-5-oxo-7,10,13-trioxa-4-azanonadecanecarbonyl)-4-hydroxy-N-(4-(4-methylthiazol-5-yl)benzyl)pyrrolidine-2-carboxamide]	–	No	–
Nc1ncnc2c1c(-c1ccc(Oc3ccccc3)cc1)nn2C1CCN(CCOCCOCCOc2ccc3c(c2)CN(C2CCC(=O)NC2=O)C3=O)CC1 (stereo not shown) [Compound 135, 3-(5-(2-(2-(2-(4-(4-amino-3-(4-phenoxyphenyl)-1H-pyrazolo[3,4-d]pyrimidin-1-yl)piperidin-1-yl)ethoxy)ethoxy)ethoxy)-1-oxoisoindolin-2-yl)piperidine-2,6-dione]	7	–	Max ([1]; concentration not given): >99%
